Numbered stars: 1 amine (or outer) side, 2 acyl side, 3 side chain; on linkers, the order of the positions; unused ones are H or OH. Peptide text beside a SMILES is read from it. * marks the point of attachment. C20 diacid = O=C(O)CCCCCCCCCCCCCCCCCCC(=O)*; C18 diacid = O=C(O)CCCCCCCCCCCCCCCCC(=O)*; γGlu = O=C(O)[C@H](CCC(=O)[*:2])N[*:1]
Experiment: Assay (IV) determination of solubility
Assay type: physicochemical
Protocol: Assay (IV)—Determination of Solubility
The mimylin peptide was dissolved in water at ˜500 nmol/ml and mixed 1:1 with a series of buffers (100 mM glycylglycine pH 3.0, 100 mM glycylglycine pH 4.0, 100 mM glycylglycine pH 5.0, 100 mM bistrispropane pH 6.0, 100 mM bistrispropane pH 6.5, 100 mM bistrispropane pH 7.0, 100 mM bistrispropane pH 7.5, 100 mM bistrispropane pH 8.0).

CC(C)C[C@H](NC(=O)CNC(=O)[C@H](CO)NC(=O)[C@H](C)NC(=O)CC[C@H](NC(=O)CCCCCCCCCCCCCCCCCCC(=O)O)C(=O)O)C(=O)N[C@@H](CO)C(=O)N[C@H](C(=O)N[C@@H](C)C(=O)N[C@@H](C)C(=O)N[C@@H](CC(C)C)C(=O)NCC(=O)N[C@@H](CCCNC(=N)N)C(=O)N[C@@H](CC(C)C)C(=O)N[C@@H](CO)C(=O)N[C@@H](CCC(N)=O)C(=O)N[C@@H](CCC(=O)O)C(=O)N[C@@H](CC(C)C)C(=O)N[C@@H](Cc1cnc[nH]1)C(=O)N[C@@H](CCC(=O)O)C(=O)N[C@@H](CC(C)C)C(=O)N[C@@H](CCC(=O)O)C(=O)N[C@H](C(=O)N[C@@H](Cc1ccc(O)cc1)C(=O)N1CCC[C@H]1C(=O)N[C@@H](CCCNC(=N)N)C(=O)N[C@H](C(=O)N[C@@H](CCC(=O)O)C(=O)N[C@H](C(=O)NCC(=O)N[C@@H](CO)C(=O)NCC(=O)N[C@H](C(=O)N[C@@H](Cc1ccc(O)cc1)C(N)=O)[C@@H](C)O)[C@@H](C)O)[C@@H](C)O)[C@@H](C)O)[C@@H](C)O [compound 108, [N-terminal(C20 diacid-gGlu), des1, 4G, 15Q, 21E, 23Y, 30S, 31G, 32T, 33Y]mimylin] ({C20 diacid-γGlu}-ASGLSTAALGRLSQELHELETYPRTETGSGTY-NH2)
65 µM: solubility at 18 h (pH 5.0)
≧200 μM: Solubility (pH 3.0) | Solubility (pH 4.0) | Solubility (pH 6.0) | Solubility (pH 6.5) | Solubility (pH 7.0) | Solubility (pH 7.5) | Solubility (pH 8.0)

CC(C)C[C@H](NC(=O)[C@H](C)NC(=O)[C@H](C)NC(=O)[C@@H](NC(=O)[C@H](CO)NC(=O)[C@H](CC(C)C)NC(=O)[C@H](CCC(=O)O)NC(=O)[C@H](CO)NC(=O)[C@H](C)NC(=O)CC[C@H](NC(=O)CCCCCCCCCCCCCCCCCCC(=O)O)C(=O)O)[C@@H](C)O)C(=O)NCC(=O)N[C@@H](Cc1cnc[nH]1)C(=O)N[C@@H](CC(C)C)C(=O)N[C@@H](CO)C(=O)N[C@@H](C)C(=O)N[C@@H](CCC(=O)O)C(=O)N[C@@H](CC(C)C)C(=O)N[C@@H](Cc1cnc[nH]1)C(=O)N[C@@H](CCC(=O)O)C(=O)N[C@@H](CC(C)C)C(=O)N[C@@H](C)C(=O)N[C@H](C(=O)N[C@@H](CC(C)C)C(=O)N1CCC[C@H]1C(=O)N[C@@H](Cc1cnc[nH]1)C(=O)N[C@H](C(=O)N[C@@H](CCC(=O)O)C(=O)N[C@H](C(=O)NCC(=O)N[C@H](C(=O)NCC(=O)N[C@H](C(=O)N1CCC[C@H]1C(N)=O)[C@@H](C)O)[C@@H](C)O)[C@@H](C)O)[C@@H](C)O)[C@@H](C)O [compound 93, [N-terminal(C20 diacid-gGlu), des1, 12H, 25H, 30T, 31G, 32T]mimylin] ({C20 diacid-γGlu}-ASELSTAALGHLSAELHELATLPHTETGTGTP-NH2)
≧200 μM: Solubility (pH 3.0) | Solubility (pH 4.0) | Solubility (pH 5.0) | Solubility (pH 6.0) | Solubility (pH 6.5) | Solubility (pH 7.0) | Solubility (pH 7.5) | Solubility (pH 8.0)

CC(C)C[C@H](NC(=O)[C@H](C)NC(=O)[C@H](C)NC(=O)[C@@H](NC(=O)[C@H](CO)NC(=O)[C@H](CC(C)C)NC(=O)[C@H](CCC(N)=O)NC(=O)[C@H](CO)NC(=O)[C@H](C)NC(=O)CC[C@H](NC(=O)CCCCCCCCCCCCCCCCC(=O)O)C(=O)O)[C@@H](C)O)C(=O)NCC(=O)N[C@@H](CCCNC(=N)N)C(=O)N[C@@H](CC(C)C)C(=O)N[C@@H](CO)C(=O)N[C@@H](C)C(=O)N[C@@H](CCC(=O)O)C(=O)N[C@@H](CC(C)C)C(=O)N[C@@H](Cc1cnc[nH]1)C(=O)N[C@@H](CCC(=O)O)C(=O)N[C@@H](CC(C)C)C(=O)N[C@@H](C)C(=O)N[C@H](C(=O)N[C@@H](CC(C)C)C(=O)N1CCC[C@H]1C(=O)N[C@@H](CCCNC(=N)N)C(=O)N[C@H](C(=O)N[C@@H](CCC(=O)O)C(=O)N[C@H](C(=O)NCC(=O)N[C@@H](CO)C(=O)NCC(=O)N[C@@H](CO)C(=O)N1CCC[C@H]1C(N)=O)[C@@H](C)O)[C@@H](C)O)[C@@H](C)O [compound 78, [N-terminal(C18 diacid-gGlu), des1, 4Q, 30S, 31G]mimylin] ({C18 diacid-γGlu}-ASQLSTAALGRLSAELHELATLPRTETGSGSP-NH2)
≧200 μM: Solubility (pH 3.0) | Solubility (pH 4.0) | Solubility (pH 5.0) | Solubility (pH 6.0) | Solubility (pH 6.5) | Solubility (pH 7.0) | Solubility (pH 7.5) | Solubility (pH 8.0)

CC(C)C[C@H](NC(=O)CNC(=O)[C@H](CO)NC(=O)[C@H](C)NC(=O)CC[C@H](NC(=O)CCCCCCCCCCCCCCCCCCC(=O)O)C(=O)O)C(=O)N[C@@H](CO)C(=O)N[C@H](C(=O)N[C@@H](C)C(=O)N[C@H](C(=O)N[C@@H](CC(C)C)C(=O)NCC(=O)N[C@@H](CCCNC(=N)N)C(=O)N[C@@H](CC(C)C)C(=O)N[C@@H](CO)C(=O)N[C@@H](CCC(N)=O)C(=O)N[C@@H](CCC(=O)O)C(=O)N[C@@H](CC(C)C)C(=O)N[C@@H](Cc1cnc[nH]1)C(=O)N[C@@H](CCC(=O)O)C(=O)N[C@@H](CC(C)C)C(=O)N[C@@H](CCC(N)=O)C(=O)N[C@H](C(=O)N[C@@H](CC(C)C)C(=O)N[C@@H](CCC(N)=O)C(=O)N[C@H](C(=O)N[C@@H](Cc1ccc(O)cc1)C(=O)N1CCC[C@H]1C(=O)N[C@@H](CCCNC(=N)N)C(=O)N[C@H](C(=O)N[C@@H](CCC(=O)O)C(=O)N[C@H](C(=O)NCC(=O)N[C@@H](CO)C(=O)N[C@@H](CCC(N)=O)C(=O)N[C@H](C(=O)N[C@@H](Cc1ccc(O)cc1)C(N)=O)[C@@H](C)O)[C@@H](C)O)[C@@H](C)O)[C@@H](C)O)[C@@H](C)O)C(C)C)[C@@H](C)O [compound 130, [N-terminal(C20 diacid-gGlu), des1, 4G, 9V, 15Q, 21Q, 23aQ, 23bT, 23cY, 30S, 31Q, 32T, 33Y]mimylin] ({C20 diacid-γGlu}-ASGLSTAVLGRLSQELHELQTLQTYPRTETGSQTY-NH2)
174 µM: solubility at 18 h (pH 4.0)
≧200 μM: Solubility (pH 3.0) | Solubility (pH 6.0) | Solubility (pH 6.5) | Solubility (pH 7.0) | Solubility (pH 7.5) | Solubility (pH 8.0)
9 µM: solubility at 18 h (pH 5.0)

CC(C)C[C@H](NC(=O)[C@H](CCCNC(=N)N)NC(=O)CNC(=O)[C@H](CC(C)C)NC(=O)[C@@H](NC(=O)[C@H](C)NC(=O)[C@@H](NC(=O)[C@H](CO)NC(=O)[C@H](CC(C)C)NC(=O)[C@H](CCC(=O)O)NC(=O)[C@H](CO)NC(=O)[C@H](C)NC(=O)CC[C@H](NC(=O)CCCCCCCCCCCCCCCCCCC(=O)O)C(=O)O)[C@@H](C)O)[C@@H](C)O)C(=O)N[C@@H](CO)C(=O)N[C@@H](C)C(=O)N[C@@H](CCC(=O)O)C(=O)N[C@@H](CC(C)C)C(=O)N[C@@H](Cc1cnc[nH]1)C(=O)N[C@@H](CCC(=O)O)C(=O)N[C@@H](CC(C)C)C(=O)N[C@@H](CO)C(=O)N[C@H](C(=O)N[C@@H](Cc1ccc(O)cc1)C(=O)N1CCC[C@H]1C(=O)N[C@@H](CCCNC(=N)N)C(=O)N[C@H](C(=O)N[C@@H](CCC(=O)O)C(=O)N[C@H](C(=O)NCC(=O)N[C@@H](CO)C(=O)NCC(=O)N[C@@H](CO)C(=O)N1CCC[C@H]1C(N)=O)[C@@H](C)O)[C@@H](C)O)[C@@H](C)O [compound 92, [N-terminal(C20 diacid-gGlu), des1, 9T, 21S, 23Y, 30S, 31G]mimylin] ({C20 diacid-γGlu}-ASELSTATLGRLSAELHELSTYPRTETGSGSP-NH2)
169 µM: solubility at 18 h (pH 5.0)
≧200 μM: Solubility (pH 3.0) | Solubility (pH 4.0) | Solubility (pH 6.0) | Solubility (pH 6.5) | Solubility (pH 7.0) | Solubility (pH 7.5) | Solubility (pH 8.0)

CC(C)C[C@H](NC(=O)[C@H](C)NC(=O)[C@H](C)NC(=O)[C@@H](NC(=O)[C@H](CO)NC(=O)[C@H](CC(C)C)NC(=O)[C@H](CCC(=O)O)NC(=O)[C@H](CO)NC(=O)[C@H](C)NC(=O)CC[C@H](NC(=O)CCCCCCCCCCCCCCCCCCC(=O)O)C(=O)O)[C@@H](C)O)C(=O)NCC(=O)N[C@@H](CCCNC(=N)N)C(=O)N[C@@H](CC(C)C)C(=O)N[C@@H](CO)C(=O)N[C@@H](CCC(=O)O)C(=O)N[C@@H](CCC(=O)O)C(=O)N[C@@H](CC(C)C)C(=O)N[C@@H](Cc1cnc[nH]1)C(=O)N[C@@H](CCC(=O)O)C(=O)N[C@@H](CC(C)C)C(=O)N[C@@H](C)C(=O)N[C@H](C(=O)N[C@@H](CC(C)C)C(=O)N1CCC[C@H]1C(=O)N[C@@H](CCCNC(=N)N)C(=O)N[C@H](C(=O)N[C@@H](CCC(=O)O)C(=O)N[C@H](C(=O)NCC(=O)N[C@@H](CO)C(=O)NCC(=O)N[C@@H](CO)C(=O)N1CCC[C@H]1C(N)=O)[C@@H](C)O)[C@@H](C)O)[C@@H](C)O [compound 66, [N-terminal(C20 diacid-gGlu), des1, 15E, 30S, 31G]mimylin] ({C20 diacid-γGlu}-ASELSTAALGRLSEELHELATLPRTETGSGSP-NH2)
≧200 μM: Solubility (pH 3.0) | Solubility (pH 4.0) | Solubility (pH 5.0) | Solubility (pH 6.0) | Solubility (pH 6.5) | Solubility (pH 7.0) | Solubility (pH 7.5) | Solubility (pH 8.0)
